4 molecules from ChEMBL document CHEMBL1201862, “PubChem BioAssay data set” (2004) can be followed below.

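Five compound concentrations were applied to cells in 96-well plates for 48 hours; endpoints were derived by simple linear interpolation of the resulting dose-response curve. GI50 marks 50% less growth.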 Active and inactive are the calls of the source. No stated cut-off is given here; in the data, active = GI50 up to about 1.1 µM and inactive = higher.

Test systems include A549; ACHN; COLO 205; DU-145; EKVX; HCC 2998; LOX IMVI; MDA-N; NCI/ADR-RES; OVCAR-4; PC-3; RPMI-8226; SF-268; SK-OV-3; T47D; U-251; UACC-62; UO-31; BT-549.
Holding throughout (assay): NCI-60 cell line screen, 48 h

For the molecule `COC(=O)c1ccccc1/C=C1\Cc2ccc3c(c2C1=O)CCC3`, the GI50 with A549, in the experiment with ACHN, with COLO 205, in the experiment with DU-145, in the experiment with EKVX and in the experiment with HCC 2998 was > 100 µM (inactive) throughout. Also, the GI50 in the experiment on LOX IMVI, with MDA-N, with NCI/ADR-RES, in the experiment with OVCAR-4, with PC-3 and with RPMI-8226 was > 100 µM (inactive) each time. For the same molecule, the GI50 in the experiment on SF-268, in the experiment with SK-OV-3, in the experiment with T47D, with U-251, in the experiment on UACC-62 and in the experiment on UO-31 was > 100 µM (inactive) throughout.

On to `O=C(/C=C/c1cccs1)c1ccc([N+](=O)[O-])cc1`, for which the GI50 in the experiment with A549, with ACHN, with COLO 205, in the experiment on DU-145, in the experiment with EKVX and in the experiment with HCC 2998 was > 100 µM (inactive) in each case. Also, the GI50 in the experiment on LOX IMVI is 74.5 µM (inactive); with MDA-N, > 100 µM (inactive); with NCI/ADR-RES, 83.4 µM (inactive); in the experiment on OVCAR-4, > 100 µM (inactive); in the experiment with PC-3 it was > 100 µM (inactive); in the experiment on RPMI-8226, 49.4 µM (inactive). Moreover, the GI50 in the experiment on SF-268 is > 100 µM (inactive); in the experiment with SK-OV-3, > 100 µM (inactive); in the experiment with T47D, > 100 µM (inactive); with U-251, > 100 µM (inactive); with UACC-62, > 100 µM (inactive); in the experiment with UO-31 it was 26.9 µM (inactive).

Regarding `Cc1ccc(-c2n[nH]c(CC#N)n2)cc1`, the GI50 in the experiment with A549 is > 100 µM (inactive); with ACHN, > 100 µM (inactive); in the experiment on BT-549, > 100 µM (inactive); with COLO 205, > 100 µM (inactive); with DU-145, > 100 µM (inactive); in the experiment on EKVX, 8.57 µM (inactive). For the same molecule, the GI50 in the experiment on HCC 2998, with LOX IMVI, with NCI/ADR-RES, in the experiment on OVCAR-4, with PC-3 and with SF-268 was > 100 µM (inactive) in each case. Besides, the GI50 in the experiment with SK-OV-3, with T47D, with U-251, with UACC-62 and with UO-31 was > 100 µM (inactive) in each case.

Regarding `CCCCCCCCCCCCCC[S+](C)C`, the GI50 with A549 is 1.68 µM (inactive); in the experiment on ACHN, 3.32 µM (inactive); in the experiment with COLO 205, 1.62 µM (inactive); in the experiment with DU-145, 3.8 µM (inactive); in the experiment with EKVX, 3.01 µM (inactive); in the experiment on HCC 2998, 1.66 µM (inactive). Further, the GI50 is 1.79 µM (inactive) with LOX IMVI; 2.08 µM (inactive) with MDA-N; > 10 µM (inactive) in the experiment on NCI/ADR-RES; 2.4 µM (inactive) in the experiment with OVCAR-4; 1.24 µM (inactive) in the experiment with PC-3; 0.601 µM (active) in the experiment with RPMI-8226. For the same molecule, the GI50 is 1.51 µM (inactive) in the experiment on SF-268; 4.02 µM (inactive) in the experiment with SK-OV-3; 2.1 µM (inactive) in the experiment with T47D; 1.09 µM (active) with U-251; 2.22 µM (inactive) with UACC-62; 3.07 µM (inactive) in the experiment with UO-31.
